Target: Human immunodeficiency virus type 1 protease (Human immunodeficiency virus 1, UniProt Q72874)
Assay: In vitro inhibitory activity against HIV-1 protease(PR).

O=C(OC1CCCCC1)c1ccccc1CSc1c(O)oc(-c2ccccc2)cc1=O
IC50: 1200 nM

O=c1cc(-c2cc(C(F)(F)F)cc(C(F)(F)F)c2)oc(O)c1SCc1ccccc1
IC50: 630 nM

CC(C)OC(=O)c1ccccc1CSc1c(O)cc(-c2ccccc2)oc1=O
IC50: 34 nM

Cc1ccccc1CSc1c(O)cc(-c2ccccc2)oc1=O
IC50: 5370 nM

Cc1ccc(CSc2c(O)cc(-c3ccccc3)oc2=O)cc1
IC50: 4580 nM

Cc1ccc(-c2cc(O)c(SCc3ccccc3)c(=O)o2)cc1
IC50: 12300 nM

COC(=O)c1ccc(-c2cc(O)c(SCc3ccccc3)c(=O)o2)cc1
IC50: > 100000 nM

O=c1cc(-c2ccccc2Cl)oc(O)c1SCc1ccccc1
IC50: 2540 nM

O=C(O)c1cccc(CSc2c(O)cc(-c3ccccc3)oc2=O)c1
IC50: 6150 nM

CCc1cccc(-c2cc(O)c(SCc3ccccc3)c(=O)o2)c1
IC50: 2040 nM

O=c1cc(-c2ccc3c(c2)OCCO3)oc(O)c1SCc1ccccc1
IC50: 790 nM

O=c1cc(-c2cccc(O)c2)oc(O)c1SCc1ccccc1
IC50: 1190 nM

O=c1cc(-c2cccc(Cl)c2)oc(O)c1SCc1ccccc1
IC50: 690 nM

Cc1cc(C)cc(-c2cc(O)c(SCc3ccccc3)c(=O)o2)c1
IC50: 260 nM

O=c1cc(-c2ccc(O)cc2)oc(O)c1SCc1ccccc1
IC50: 690 nM

O=c1cc(-c2cccc(C(F)(F)F)c2)oc(O)c1SCc1ccccc1
IC50: 600 nM

O=c1cc(-c2cccc(OC(F)(F)F)c2)oc(O)c1SCc1ccccc1
IC50: 2140 nM

O=c1cc(-c2ccccc2O)oc(O)c1SCc1ccccc1
IC50: 6000 nM

COc1cccc(-c2cc(O)c(SCc3ccccc3)c(=O)o2)c1
IC50: 990 nM

Cc1cccc(CSc2c(O)cc(-c3ccccc3)oc2=O)c1
IC50: 8540 nM

COC(=O)c1cccc(CSc2c(O)cc(-c3ccccc3)oc2=O)c1
IC50: 19300 nM

O=c1cc(-c2ccccc2)oc(O)c1SCc1ccccc1
IC50: 1700 nM

CC(C)(C)NC(=O)c1ccccc1CSc1c(O)cc(-c2ccccc2)oc1=O
IC50: 190 nM

O=C(O)c1ccc(CSc2c(O)cc(-c3ccccc3)oc2=O)cc1
IC50: 10200 nM

O=c1cc(-c2ccccc2)oc(O)c1SCc1ccc2c(c1)OCCO2
IC50: 3420 nM

CC(C)COC(=O)c1ccccc1CSc1c(O)cc(-c2ccccc2)oc1=O
IC50: 619 nM

Cc1cccc(-c2cc(O)c(SCc3ccccc3)c(=O)o2)c1
IC50: 860 nM

Cc1cc(-c2cc(O)c(SCc3ccccc3)c(=O)o2)cc(C)c1O
IC50: 250 nM

Cc1ccccc1-c1cc(O)c(SCc2ccccc2)c(=O)o1
IC50: 14200 nM

O=C(OC1CCCC1)c1ccccc1CSc1c(O)oc(-c2ccccc2)cc1=O
IC50: 50 nM

O=C(O)c1ccccc1CSc1c(O)cc(-c2ccccc2)oc1=O
IC50: 24800 nM

COc1ccc(-c2cc(O)c(SCc3ccccc3)c(=O)o2)cc1
IC50: 1630 nM

COc1ccc(-c2cc(O)c(SCc3ccccc3)c(=O)o2)cc1C
IC50: 740 nM

COC(=O)c1ccc(CSc2c(O)cc(-c3ccccc3)oc2=O)cc1
IC50: > 10000 nM

COC(=O)c1ccccc1CSc1c(O)cc(-c2ccccc2)oc1=O
IC50: 1000 nM

O=C(O)c1ccc(-c2cc(O)c(SCc3ccccc3)c(=O)o2)cc1
IC50: 360 nM

Reference: ChEMBL document CHEMBL1149949, “Nonpeptidic HIV protease inhibitors: 3-(S-benzyl substituted)-4-hydroxy-6-(phenyl substituted)-2H-pyran-2-one with an inverse mode of binding” (Bioorg Med Chem Lett, 1996)
